Measured values as given in publication PMC10578352, “Identification of a Protein Arginine Methyltransferase 7 (PRMT7)/Protein Arginine Methyltransferase 9 (PRMT9) Inhibitor” (Journal of Medicinal Chemistry, 2023).

Assays:
Type in all cases: biochemical
[1] = molecular target: T1, PRMT3 (Homo sapiens, UniProt O60678); test: HotSpot radioisotope-based filter assay, PRMT3
T1 construct: PRMT3 (residues 2–531, C-terminus); with an N-terminal His-tag; His (N); purchased Reaction Biology Corporation
Procedure: (§1) Then, ^3H-SAM (final concentration of 1 μM) was delivered into the reaction mixture to initiate the reaction. After incubation for 60 min at 30 °C, the reaction mixture was delivered to filter-paper for detection (as assessed by scintillation). Data were analyzed using Excel and GraphPad Prism 6.0 software (GraphPad Software Inc., San Diego, CA) for IC50 curve fits using sigmoidal dose vs response - variable slope (four parameters) equations.

[2] = molecular target: T2, PRMT5/MEP50 complex (Homo sapiens, UniProt O14744); test: HotSpot radioisotope-based filter assay, PRMT5
T2 construct: residues PRMT5 2–637, C-terminus, and MEP50 2–342, C-terminus; FLAG (N); purchased Reaction Biology Corporation
T2 sequence (O14744 2-637): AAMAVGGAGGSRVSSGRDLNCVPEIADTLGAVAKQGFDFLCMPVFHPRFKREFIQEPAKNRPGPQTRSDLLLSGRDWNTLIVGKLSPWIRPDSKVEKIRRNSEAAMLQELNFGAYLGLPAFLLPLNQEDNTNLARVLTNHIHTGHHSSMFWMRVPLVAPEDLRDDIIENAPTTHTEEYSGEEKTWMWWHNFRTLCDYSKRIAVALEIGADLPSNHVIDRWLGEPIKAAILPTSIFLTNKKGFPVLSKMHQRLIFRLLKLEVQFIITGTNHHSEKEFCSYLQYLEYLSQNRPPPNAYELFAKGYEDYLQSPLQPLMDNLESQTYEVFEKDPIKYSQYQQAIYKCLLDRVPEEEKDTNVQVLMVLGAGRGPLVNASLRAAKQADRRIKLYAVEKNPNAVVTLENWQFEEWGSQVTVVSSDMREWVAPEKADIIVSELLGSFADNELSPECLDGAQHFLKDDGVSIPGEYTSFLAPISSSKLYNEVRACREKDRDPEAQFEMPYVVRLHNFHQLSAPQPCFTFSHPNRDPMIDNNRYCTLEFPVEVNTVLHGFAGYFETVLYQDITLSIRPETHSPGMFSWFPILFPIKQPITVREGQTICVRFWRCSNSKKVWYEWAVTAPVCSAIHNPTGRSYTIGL
T2 sequence (Q9BQA1 2-342 partner limits assumed): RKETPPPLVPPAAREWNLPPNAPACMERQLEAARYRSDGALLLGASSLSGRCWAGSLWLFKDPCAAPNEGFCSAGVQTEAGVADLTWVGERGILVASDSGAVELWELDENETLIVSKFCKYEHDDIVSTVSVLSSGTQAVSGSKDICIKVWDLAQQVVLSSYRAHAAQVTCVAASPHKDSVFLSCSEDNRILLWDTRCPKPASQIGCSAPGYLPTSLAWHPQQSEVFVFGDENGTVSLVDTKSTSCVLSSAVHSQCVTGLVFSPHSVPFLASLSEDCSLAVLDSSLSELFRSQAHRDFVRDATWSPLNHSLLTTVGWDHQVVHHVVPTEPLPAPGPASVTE
Procedure: as §1

[3] = molecular target: T3, PRMT6 (Homo sapiens, UniProt Q96LA8); test: HotSpot radioisotope-based filter assay, PRMT6
T3 construct: PRMT6 (residues 2–375, C-terminus); with an N-terminal GST-tag; GST (N); purchased Reaction Biology Corporation
T3 sequence (Q96LA8 2-375): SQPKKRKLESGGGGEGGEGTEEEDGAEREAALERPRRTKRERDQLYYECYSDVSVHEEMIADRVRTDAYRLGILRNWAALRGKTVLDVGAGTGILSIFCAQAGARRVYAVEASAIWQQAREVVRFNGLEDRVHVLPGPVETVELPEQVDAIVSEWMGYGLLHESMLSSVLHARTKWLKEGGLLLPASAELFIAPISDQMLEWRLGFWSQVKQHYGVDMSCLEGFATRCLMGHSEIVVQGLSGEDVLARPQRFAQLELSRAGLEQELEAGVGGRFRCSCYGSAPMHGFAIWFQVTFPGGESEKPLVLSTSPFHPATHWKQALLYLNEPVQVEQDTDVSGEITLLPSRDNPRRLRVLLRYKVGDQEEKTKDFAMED
Procedure: as §1

[4] = molecular target: T4, PRMT4 (Homo sapiens, UniProt Q86X55); test: HotSpot radioisotope-based filter assay, PRMT4
T4 construct: PRMT4 (residues 2–608, C-terminus); with an N-terminal GST-tag; GST (N); purchased Reaction Biology Corporation
T4 sequence (Q86X55 2-608): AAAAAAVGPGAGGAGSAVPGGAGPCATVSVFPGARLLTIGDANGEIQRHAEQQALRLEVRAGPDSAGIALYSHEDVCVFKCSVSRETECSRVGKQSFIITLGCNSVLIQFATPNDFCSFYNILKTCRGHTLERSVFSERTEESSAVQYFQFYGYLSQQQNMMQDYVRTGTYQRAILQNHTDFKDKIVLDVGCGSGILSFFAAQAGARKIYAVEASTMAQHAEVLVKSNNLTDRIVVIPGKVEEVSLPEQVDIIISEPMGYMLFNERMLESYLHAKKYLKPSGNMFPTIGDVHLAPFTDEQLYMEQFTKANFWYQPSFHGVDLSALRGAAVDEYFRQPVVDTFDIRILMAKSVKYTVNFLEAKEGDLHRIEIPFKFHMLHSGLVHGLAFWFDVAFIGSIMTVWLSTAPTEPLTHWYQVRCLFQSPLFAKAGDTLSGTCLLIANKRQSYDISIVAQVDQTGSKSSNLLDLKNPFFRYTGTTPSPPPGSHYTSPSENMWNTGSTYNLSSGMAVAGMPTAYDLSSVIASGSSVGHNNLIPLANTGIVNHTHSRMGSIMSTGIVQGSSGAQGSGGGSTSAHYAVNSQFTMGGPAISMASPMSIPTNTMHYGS
Procedure: as §1

[5] = molecular target: T5, PRMT8 (Homo sapiens, UniProt Q9NR22); test: HotSpot radioisotope-based filter assay, PRMT8
T5 construct: (residues 61–394, C-terminus); with C- and N-terminal His-tags; His (N); His (C); purchased Reaction Biology Corporation
T5 sequence (Q9NR22 61-394): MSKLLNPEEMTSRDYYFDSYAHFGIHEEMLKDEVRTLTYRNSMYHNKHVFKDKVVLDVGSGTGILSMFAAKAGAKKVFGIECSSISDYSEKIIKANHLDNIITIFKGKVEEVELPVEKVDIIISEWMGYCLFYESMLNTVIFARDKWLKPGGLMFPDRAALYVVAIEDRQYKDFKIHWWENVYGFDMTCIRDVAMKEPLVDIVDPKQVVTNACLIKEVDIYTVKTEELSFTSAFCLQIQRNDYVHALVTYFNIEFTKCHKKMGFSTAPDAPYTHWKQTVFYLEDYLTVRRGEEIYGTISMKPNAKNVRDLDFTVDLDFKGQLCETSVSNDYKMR
Procedure: as §1

[6] = Figure 2, from IC50 values of ref 31

T1 sequence (O60678 2-531): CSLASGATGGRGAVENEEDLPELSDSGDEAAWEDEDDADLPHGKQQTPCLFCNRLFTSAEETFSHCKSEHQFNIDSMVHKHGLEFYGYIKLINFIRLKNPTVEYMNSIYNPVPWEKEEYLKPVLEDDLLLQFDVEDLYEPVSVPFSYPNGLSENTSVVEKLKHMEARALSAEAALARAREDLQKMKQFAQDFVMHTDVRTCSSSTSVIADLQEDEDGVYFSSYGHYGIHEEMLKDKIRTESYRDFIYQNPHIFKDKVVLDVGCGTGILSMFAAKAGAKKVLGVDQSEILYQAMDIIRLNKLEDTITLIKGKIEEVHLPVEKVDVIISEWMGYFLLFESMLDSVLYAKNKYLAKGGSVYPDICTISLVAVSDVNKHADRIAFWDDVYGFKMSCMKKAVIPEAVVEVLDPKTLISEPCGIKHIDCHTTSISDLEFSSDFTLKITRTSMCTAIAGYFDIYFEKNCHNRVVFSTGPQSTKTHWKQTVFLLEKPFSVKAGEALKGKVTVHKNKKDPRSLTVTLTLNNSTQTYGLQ

selectivity index for PRMT7 over PRMT3 [1, 6] [fold] | selectivity index for PRMT7 over PRMT5 [2, 6] [fold] | selectivity index for PRMT7 over PRMT6 [3, 6] [fold] | selectivity index for PRMT7 over PRMT4 [4, 6] [fold] | selectivity index for PRMT7 over PRMT8 [5, 6] [fold] | IC50 ([1]; 5 μM histone H4, 3H-SAM 1 μM) [nM] | IC50 ([2]; 5 μM histone H2A, 3H-SAM 1 μM) [nM] | IC50 ([3]; 5 μM GST-GAR, 3H-SAM 1 μM) [nM] | IC50 ([4]; 5 μM histone H3, 3H-SAM 1 μM) [nM] | IC50 ([5]; 5 μM histone H4, 3H-SAM 1 μM) [nM] | SMILES
97 | 234 | 455 | 2 | 27 | – | – | – | – | – | COC(=O)c1cc(O)c2cc(NC(=O)NCCCCCNC(=N)NC[C@H]3O[C@@H](n4cnc5c(N)ncnc54)[C@H](O)[C@@H]3O)ccc2c1 [1c]
– | – | – | – | – | 14900 | 1010 | 49700 | 1460 | 1970 | COC(=O)c1cc(O)c2cc(NC(=O)NCCCNC(=N)NC[C@H]3O[C@@H](n4cnc5c(N)ncnc54)[C@H](O)[C@@H]3O)cc(C(F)(F)F)c2c1 [1j, Methyl 6-(3-(3-(3-(((2R,3S,4R,5R)-5-(6-Amino-9H-purin-9-yl)-3,4-dihydroxytetrahydrofuran-2-yl)methyl)guanidino)propyl)ureido)-4-hydroxy-8-(trifluoromethyl)-2-naphthoate]
